Measured values from patent US10472385B2, “Triterpene-glycosides as sweeteners or sweetener enhancers” (priority 2013, dated 2019).

Tested on: panel of 4 panelists (sweet taste)
Test: Organoleptic test of the compounds of formula (I) against sucrose and mogroside V
Type: in vivo
Design: key: 3 = sweeter than control, 1 = less sweet than control but still sweet
Conditions: compound 0.4 mg/ml (400 ppm) in non-carbonated mineral water; for Organoleptic evaluation compared to mogroside V*: control solution mogroside V 0.1 mg/ml (100 ppm); for Organoleptic evaluation compared to sucrose*: control solution sucrose 20 mg/ml
Method: Organoleptic Test of the Compounds of Formula (I) Against Sucrose and Mogroside V
The isolated pure compounds were dissolved in non-carbonated mineral water (“Fonsana Quelle”) in a concentration of 0.4 mg/ml (400 ppm). The sweet taste of each sample was compared by a panel of 4 panelists with a solution of sucrose in a concentration of 20 mg/ml and with a solution of the known sweetener mogroside V (isolated by AnalytiCon from Momordica grosvenori) in a concentration of 0.1 mg/ml (100 ppm).
The sweetness was evaluated as follows:
3=sweeter than the control solution
1=less sweet than the control solution but still sweet

| SMILES | Organoleptic evaluation compared to mogroside V* | Organoleptic evaluation compared to sucrose* |
| --- | --- | --- |
| C[C@H](CC[C@@H](O[C@@H]1O[C@H](CO)[C@@H](O)[C@H](O)[C@H]1O[C@@H]1O[C@H](CO)[C@@H](O)[C@H](O)[C@H]1O)C(C)(C)O)[C@H]1CC[C@@]2(C)[C@@H]3CC=C4C(CC[C@H](O)C4(C)C)[C@]3(C)[C@H](O)C[C@]12C (stereo partly drawn) [Compound Aa, (2S,3R,4S,5S,6R)-2-((2S,3R,4S,5S,6R)-2-((3R,6R)-6-((3S,8S,9R,11R,13R,14S,17R)-3,11-dihydroxy-4,4,9,13,14-pentamethyl-2,3,4,7,8,9,10,11,12,13,14,15,16,17-tetradecahydro-1H-cyclopenta[a]phenanthren-17-yl)-2-hydroxy-2-methylheptan-3-yloxy)-4,5-dihydroxy-6-(hydroxymethyl)tetrahydro-2H-pyran-3-yloxy)-6-(hydroxymethyl)tetrahydro-2H-pyran-3,4,5-triol] | 2 | 3 |
| C[C@H](CC[C@@H](O[C@@H]1O[C@H](CO[C@@H]2O[C@H](CO)[C@@H](O)[C@H](O)[C@H]2O)[C@@H](O)[C@H](O)[C@H]1O[C@@H]1O[C@H](CO)[C@@H](O)[C@H](O)[C@H]1O)C(C)(C)O)[C@H]1CC[C@@]2(C)[C@@H]3CC=C4[C@@H](CC[C@H](O[C@@H]5O[C@H](CO)[C@@H](O)[C@H](O)[C@H]5O[C@@H]5O[C@H](CO)[C@@H](O)[C@H](O)[C@H]5O)C4(C)C)[C@]3(C)[C@H](O)C[C@]12C [Compound Ff] | 2 | 3 |
| C[C@H](CC[C@@H](O[C@@H]1O[C@H](CO[C@@H]2O[C@H](CO)[C@@H](O)[C@H](O)[C@H]2O)[C@@H](O)[C@H](O)[C@H]1O[C@@H]1O[C@H](CO)[C@@H](O)[C@H](O)[C@H]1O)C(C)(C)O)[C@H]1CC[C@@]2(C)C3CC=C4[C@@H](CCC(=O)C4(C)C)[C@]3(C)[C@H](O)C[C@]12C (stereo partly shown) [Compound Jj] | 2 | 3 |
| C[C@H](CC[C@@H](O[C@@H]1O[C@H](CO[C@@H]2O[C@H](CO)[C@@H](O)[C@H](O)[C@H]2O)[C@@H](O)[C@H](O)[C@H]1O[C@@H]1O[C@H](CO)[C@@H](O)[C@H](O)[C@H]1O)C(C)(C)O)[C@H]1CC[C@@]2(C)[C@@H]3CC=C4C(CC[C@H](O[C@@H]5O[C@H](CO)[C@@H](O)[C@H](O)[C@H]5O)C4(C)C)[C@]3(C)CC[C@]12C (stereo partly shown) [Compound Ee] | 3 | 3 |
| C[C@H](CC[C@@H](O[C@@H]1O[C@H](CO[C@@H]2O[C@H](CO)[C@@H](O)[C@H](O)[C@H]2O)[C@@H](O)[C@H](O)[C@H]1O[C@@H]1O[C@H](CO)[C@@H](O)[C@H](O)[C@H]1O)C(C)(C)O)[C@H]1CC[C@@]2(C)[C@@H]3CC=C4C(CC[C@H](O[C@@H]5O[C@H](CO)[C@@H](O)[C@H](O)[C@H]5O[C@@H]5O[C@H](CO)[C@@H](O)[C@H](O)[C@H]5O)C4(C)C)[C@]3(C)CC[C@]12C (stereo partly shown) [Compound Dd] | 3 | 3 |
| C[C@H](CC[C@@H](O[C@@H]1O[C@H](CO)[C@@H](O)[C@H](O)[C@H]1O[C@@H]1O[C@H](CO)[C@@H](O)[C@H](O)[C@H]1O)C(C)(C)O)[C@H]1CC[C@@]2(C)C3CC=C4C(CC[C@H](O[C@@H]5O[C@H](CO)[C@@H](O)[C@H](O)[C@H]5O)C4(C)C)[C@]3(C)CC[C@]12C (stereo partly shown) [Compound Gg] | 3 | 3 |
| C[C@H](CCC(=O)C(C)(C)O)[C@H]1CC[C@@]2(C)C3CC=C4[C@@H](CC[C@H](O[C@@H]5O[C@H](CO[C@@H]6O[C@H](CO)[C@@H](O)[C@H](O)[C@H]6O)[C@@H](O)[C@H](O)[C@H]5O)C4(C)C)[C@]3(C)[C@H](O)C[C@]12C (stereo partly drawn) [Compound Hh, (6R)-2-hydroxy-6-((3S,9R,10R,11R,13R,14S,17R)-11-hydroxy-4,4,9,13,14-pentamethyl-3-((2R,3R,4S,5S,6R)-3,4,5-trihydroxy-6-(((2R,3R,4S,5S,6R)-3,4,5-trihydroxy-6-(hydroxymethyl)tetrahydro-2H-pyran-2-yloxy)methyl)tetrahydro-2H-pyran-2-yloxy)-2,3,4,7,8,9,10,11,12,13,14,15,16,17-tetradecahydro-1H-cyclopenta[a]phenanthren-17-yl)-2-methylheptan-3-one] | 1 | 2 |
| C[C@H](CC[C@@H](O[C@@H]1O[C@H](CO[C@@H]2O[C@H](CO)[C@@H](O)[C@H](O)[C@H]2O)[C@@H](O)[C@H](O)[C@H]1O[C@@H]1O[C@H](CO)[C@@H](O)[C@H](O)[C@H]1O)C(C)(C)O)[C@H]1CC[C@@]2(C)C3CC=C4[C@@H](CC[C@H](O[C@@H]5O[C@H](CO)[C@@H](O)[C@H](O)[C@H]5O)C4(C)C)[C@]3(C)C(=O)C[C@]12C (stereo partly shown) [Compound Ll] | 3 | 3 |
| C[C@H](CC[C@@H](O[C@@H]1O[C@H](CO[C@@H]2O[C@H](CO)[C@@H](O)[C@H](O)[C@H]2O)[C@@H](O)[C@H](O)[C@H]1O[C@@H]1O[C@H](CO)[C@@H](O)[C@H](O)[C@H]1O)C(C)(C)O)[C@H]1CC[C@@]2(C)C3CC=C4[C@@H](CC[C@H](O[C@@H]5O[C@H](CO)[C@@H](O)[C@H](O)[C@H]5O)C4(C)C)[C@]3(C)CC[C@]12C (stereo partly shown) [Compound Mm] | 3 | 3 |
| C[C@H](CC[C@@H](O[C@@H]1O[C@H](CO[C@@H]2O[C@H](CO)[C@@H](O)[C@H](O)[C@H]2O)[C@@H](O)[C@H](O)[C@H]1O[C@@H]1O[C@H](CO)[C@@H](O)[C@H](O)[C@H]1O)C(C)(C)O)[C@H]1CC[C@@]2(C)C3CC=C4[C@@H](CC[C@H](O)C4(C)C)[C@]3(C)CC[C@]12C (stereo partly shown) [Compound Kk] | 1 | 2 |
| C[C@H](CC[C@@H](O[C@@H]1O[C@H](CO[C@@H]2O[C@H](CO)[C@@H](O)[C@H](O)[C@H]2O)[C@@H](O)[C@H](O)[C@H]1O[C@@H]1O[C@H](CO)[C@@H](O)[C@H](O)[C@H]1O)C(C)(C)O)[C@H]1CC[C@@]2(C)C3CC=C4C(CC[C@H](O[C@@H]5O[C@H](CO)[C@@H](O[C@@H]6O[C@H](CO)[C@@H](O)[C@H](O)[C@H]6O)[C@H](O)[C@H]5O)C4(C)C)[C@]3(C)CC[C@]12C (stereo partly shown) [Compound Cc] | 3 | 3 |
